Experimental data published in patent US20250171437A1 (Agios Pharmaceuticals,Inc., priority 2022, published 2025).

Biological target: T1, human PAH with the R408W mutation (A375 R408W cells) (Homo sapiens, UniProt P00439, R408W)
T1 construct: expressed in transfected cells
T1 sequence (P00439 1-452 R408W): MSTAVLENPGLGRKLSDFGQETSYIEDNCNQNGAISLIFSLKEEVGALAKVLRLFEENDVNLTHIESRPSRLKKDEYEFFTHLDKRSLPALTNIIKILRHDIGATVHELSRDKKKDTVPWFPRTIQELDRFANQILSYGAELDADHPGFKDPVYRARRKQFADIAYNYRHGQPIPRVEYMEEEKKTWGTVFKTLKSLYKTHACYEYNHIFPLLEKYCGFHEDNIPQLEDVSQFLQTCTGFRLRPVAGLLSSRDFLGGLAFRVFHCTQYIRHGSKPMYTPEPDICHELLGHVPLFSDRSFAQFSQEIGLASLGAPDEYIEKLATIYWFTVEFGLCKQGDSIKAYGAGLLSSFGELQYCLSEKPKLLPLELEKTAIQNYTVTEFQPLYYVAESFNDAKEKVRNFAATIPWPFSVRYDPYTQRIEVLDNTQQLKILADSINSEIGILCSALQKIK
Assay: Cell Based Phenylalanine Flux Assay
Details: 24 hrs with compound, then 20 μM sepiapterin and 800 μM 13C9,15N-Phenylalanine for 4 hours, 13C-Tyrosine by LC-MS, average where tested multiple times
Summary of the method: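 LC-MS quantitation of 13C-tyrosine in media gave AC50 values. Stable A375 R408W PAH cells were preincubated 24 h with compound, then fed 800 μM labelled Phe plus 20 μM sepiapterin for 4 h. Dose curves were 10-point, tested in duplicate, averaged over repeat runs.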

[1] = A375 cells expressing R408W PAH

Molecule `Cc1ccc2nc([C@@H]3c4nc[nH]c4CCN3C(=O)c3oc(C(C)(C)O)nc3Br)oc2c1` [Example 439, (S)-(4-bromo-2-(2-hydroxypropan-2-yl)oxazol-5-yl)(4-(6-methylbenzo[d]oxazol-2-yl)-6,7-dihydro-1H-imidazo[4,5-c]pyridin-5(4H)-yl)methanone] has an AC50 (A375 R408W cells) of at most 0.5 µM.
For `COCCc1ccc2c(C(=O)N3CCc4[nH]cnc4C3c3nc4cc(F)ccc4o3)cnn2c1` (stereo not shown), the AC50 [1] was 1 to 5 µM.
Work on `O=C(c1nnc(NC2CC2)o1)N1CCc2[nH]cnc2C1c1nc2cc(F)ccc2o1` (stereo not shown) yielded an AC50 [1] of 1 to 5 µM.
With `Cc1ccc2oc([C@@H]3c4nc[nH]c4CCN3C(=O)c3nnc(-c4cc[nH]n4)o3)nc2c1` [Example 355, (S)-(5-(1H-pyrazol-3-yl)-1,3,4-oxadiazol-2-yl)(4-(5-methylbenzo[d]oxazol-2-yl)-6,7-dihydro-1H-imidazo[4,5-c]pyridin-5(4H)-yl)methanone] the AC50 (A375 R408W cells) was 0.5 to 1 µM.
`Cc1ncoc1C(=O)N1CCc2[nH]cnc2[C@@H]1c1nc2c(F)cccc2o1` [Example 600, (R)-(4-(4-fluorobenzo[d]oxazol-2-yl)-6,7-dihydro-1H-imidazo[4,5-c]pyridin-5(4H)-yl)(4-methyloxazol-5-yl)methanone] was tested, and the AC50 (A375 R408W cells) was 1 to 5 µM.
`O=C(c1oc(C2(O)CC2)nc1C(F)F)N1CCc2[nH]cnc2[C@@H]1c1nc2ccc(F)cc2o1` [Example 238, (R)-(4-(difluoromethyl)-2-(1-hydroxycyclopropyl)oxazol-5-yl)(4-(6-fluorobenzo[d]oxazol-2-yl)-6,7-dihydro-1H-imidazo[4,5-c]pyridin-5(4H)-yl)methanone] showed an AC50 (A375 R408W cells) of 1 to 5 µM.
For `O=C(c1ccnn1C(F)F)N1CCc2[nH]cnc2[C@@H]1c1nc2ccccc2o1` [Example 564, (R)-(4-(benzo[d]oxazol-2-yl)-6,7-dihydro-1H-imidazo[4,5-c]pyridin-5(4H)-yl)(1-(difluoromethyl)-1H-pyrazol-5-yl)methanone], the AC50 (A375 R408W cells) was 1 to 5 µM.
For `Cn1ncnc1C(=O)N1CCc2[nH]cnc2C1c1nc2ccccc2o1` (stereo not shown), the AC50 [1] was 1 to 5 µM.
`O=C(c1nnc(-c2cnn(C3CCC3)c2)o1)N1CCc2[nH]cnc2[C@H]1c1nc2c(F)ccc(F)c2o1` [Example 811, (S)-(5-(1-cyclobutyl-1H-pyrazol-4-yl)-1,3,4-oxadiazol-2-yl)(4-(4,7-difluorobenzo[d]oxazol-2-yl)-6,7-dihydro-1H-imidazo[4,5-c]pyridin-5(4H)-yl)methanone] was tested, and the AC50 (A375 R408W cells) was at most 0.5 µM.
With `O=C(c1cn[nH]c1C(F)F)N1CCc2[nH]cnc2C1c1nc2cc(F)ccc2o1` (stereo not shown) the AC50 [1] was at least 5 µM.
In the case of `Cc1ccc(F)c2nc([C@H]3c4nc[nH]c4CCN3C(=O)c3ocnc3C(F)F)oc12` [Example 744, (R)-(4-(difluoromethyl)oxazol-5-yl)(4-(4-fluoro-7-methylbenzo[d]oxazol-2-yl)-6,7-dihydro-1H-imidazo[4,5-c]pyridin-5(4H)-yl)methanone], the AC50 (A375 R408W cells) is reported as at most 0.5 µM.
`O=C(c1nnc(-c2cnn(C(F)F)c2)o1)N1CCc2[nH]cnc2[C@@H]1c1nc2ccccc2o1` [Example 842, (R)-(4-(benzo[d]oxazol-2-yl)-6,7-dihydro-1H-imidazo[4,5-c]pyridin-5(4H)-yl)(5-(1-(difluoromethyl)-1H-pyrazol-4-yl)-1,3,4-oxadiazol-2-yl)methanone] showed an AC50 (A375 R408W cells) of 1 to 5 µM.
`COc1cccc2nc([C@@H]3c4nc[nH]c4CCN3C(=O)c3ccnn3C(C)C)oc12` [Example 765, (S)-(1-isopropyl-1H-pyrazol-5-yl)(4-(7-methoxybenzo[d]oxazol-2-yl)-6,7-dihydro-1H-imidazo[4,5-c]pyridin-5(4H)-yl)methanone] was tested, and the AC50 (A375 R408W cells) was at most 0.5 µM.
Work on `O=C(c1nnc(-c2cn[nH]c2)o1)N1CCc2[nH]cnc2C1c1nc2cc(F)ccc2o1` (stereo not shown) yielded an AC50 [1] of 1 to 5 µM.
Work on `CC(F)(F)c1ncoc1C(=O)N1CCc2[nH]cnc2[C@H]1c1nc2cccc(F)c2o1` [Example 620, (S)-(4-(1,1-difluoroethyl)oxazol-5-yl)(4-(7-fluorobenzo[d]oxazol-2-yl)-6,7-dihydro-1H-imidazo[4,5-c]pyridin-5(4H)-yl)methanone] yielded an AC50 (A375 R408W cells) of at most 0.5 µM.
Work on `C[C@H](O)c1nc(C(F)F)c(C(=O)N2CCc3[nH]cnc3[C@@H]2c2nc3c(F)cccc3o2)o1` [Example 228, (4-(difluoromethyl)-2-((S)-1-hydroxyethyl)oxazol-5-yl)((R)-4-(4-fluorobenzo[d]oxazol-2-yl)-6,7-dihydro-1H-imidazo[4,5-c]pyridin-5(4H)-yl)methanone] yielded an AC50 (A375 R408W cells) of 1 to 5 µM.
`CC(C)(O)c1noc(C(=O)N2CCc3[nH]cnc3C2c2nc3cc(F)ccc3o2)n1` (stereo not shown) showed an AC50 [1] of at least 5 µM.
`O=C(c1oc(-c2ccncc2)nc1C(F)F)N1CCc2[nH]cnc2[C@H]1c1nc2cccc(F)c2o1` [Example 560, (S)-(4-(difluoromethyl)-2-(pyridin-4-yl)oxazol-5-yl)(4-(7-fluorobenzo[d]oxazol-2-yl)-6,7-dihydro-1H-imidazo[4,5-c]pyridin-5(4H)-yl)methanone] showed an AC50 (A375 R408W cells) of at most 0.5 µM.
In the case of `O=C(c1nnc(-c2ccncn2)o1)N1CCc2[nH]cnc2C1c1nc2cc(F)ccc2o1` (stereo not shown), the AC50 [1] is reported as 1 to 5 µM.
`O=C(CCc1nccs1)N1CCc2[nH]cnc2[C@@H]1c1nc2cccc(F)c2o1` [Example 386, 1-[(4R)-4-(7-fluoro-1,3-benzoxazol-2-yl)-1,4,6,7-tetrahydroimidazo[4,5-c]pyridin-5-yl]-3-thiazol-2-yl-propan-1-one] was tested, and the AC50 (A375 R408W cells) was at least 5 µM.
`CC(C)(O)c1cc(C(=O)N2CCc3[nH]cnc3C2c2nc3cc(F)ccc3o2)on1` (stereo not shown) gave an AC50 [1] of 1 to 5 µM.
`Cc1cc(F)cc2nc([C@@H]3c4nc[nH]c4CCN3C(=O)c3ocnc3C(F)F)oc12` [Example 657, (S)-(4-(difluoromethyl)oxazol-5-yl)(4-(5-fluoro-7-methylbenzo[d]oxazol-2-yl)-6,7-dihydro-1H-imidazo[4,5-c]pyridin-5(4H)-yl)methanone] showed an AC50 (A375 R408W cells) of at most 0.5 µM.
`COc1ccc2oc(C3c4nc[nH]c4CCN3C(=O)c3cnc(C(C)(C)O)o3)nc2c1` (stereo not shown) showed an AC50 [1] of at least 5 µM.
`CC(C)(C)OC(=O)N1CCN(c2ccc3c(C(=O)N4CCc5[nH]cnc5C4c4nc5cc(F)ccc5o4)cnn3c2)CC1` (single isomer, unassigned) [4R enantiomer of tert-butyl 4-{3-[4-(5-fluoro-1,3-benzoxazol] showed an AC50 [1] of at least 5 µM.
For `Cc1cccc2nc(C3c4nc[nH]c4CCN3C(=O)c3ccnn3-c3ccccn3)oc12` (stereo not shown), the AC50 [1] was 1 to 5 µM.
`CC(C)(O)c1nc(C(F)F)c(C(=O)N2CCc3[nH]cnc3[C@@H]2c2nc3cc(Br)cc(F)c3o2)o1` [Example 572, (R)-(4-(5-bromo-7-fluorobenzo[d]oxazol-2-yl)-6,7-dihydro-1H-imidazo[4,5-c]pyridin-5(4H)-yl)(4-(difluoromethyl)-2-(2-hydroxypropan-2-yl)oxazol-5-yl)methanone] gave an AC50 (A375 R408W cells) of at most 0.5 µM.
`O=C(c1cnco1)N1CCc2[nH]cnc2[C@H]1c1nc2cc(F)cc(F)c2o1` [Example 575, (S)-(4-(5,7-difluorobenzo[d]oxazol-2-yl)-6,7-dihydro-1H-imidazo[4,5-c]pyridin-5(4H)-yl)(oxazol-5-yl)methanone] gave an AC50 (A375 R408W cells) of 1 to 5 µM.
Molecule `O=C(c1nncn1C1CC1)N1CCc2[nH]cnc2C1c1nc2c(F)cccc2o1` (stereo not shown) has an AC50 [1] of 1 to 5 µM.
`O=C(c1ocnc1CF)N1CCc2[nH]cnc2[C@H]1c1nc2cc(F)ccc2o1` [Example 179, (S)-(4-(5-fluorobenzo[d]oxazol-2-yl)-6,7-dihydro-1H-imidazo[4,5-c]pyridin-5(4H)-yl)(4-(fluoromethyl)oxazol-5-yl)methanone] showed an AC50 (A375 R408W cells) of 0.5 to 1 µM.
`CC(C)(O)c1ncc(C(=O)N2CCc3[nH]cnc3C2c2nc3ccccc3o2)o1` (stereo not shown) gave an AC50 [1] of 1 to 5 µM.
For `Cn1cnc(-c2nnc(C(=O)N3CCc4[nH]cnc4C3c3nc4cc(F)ccc4o3)o2)c1` (stereo not shown), the AC50 [1] was 1 to 5 µM.
`Cc1ncoc1C(=O)N1CCc2[nH]cnc2[C@H]1c1nc2ccc(F)cc2o1` [Example 597, (S)-(4-(6-fluorobenzo[d]oxazol-2-yl)-6,7-dihydro-1H-imidazo[4,5-c]pyridin-5(4H)-yl)(4-methyloxazol-5-yl)methanone] gave an AC50 (A375 R408W cells) of at most 0.5 µM.
Work on `Cn1nc(C(F)F)nc1C(=O)N1CCc2[nH]cnc2C1c1nc2cc(F)ccc2o1` (stereo not shown) yielded an AC50 [1] of 1 to 5 µM.
`CC(C)(O)c1nc(Br)c(C(=O)N2CCc3[nH]cnc3[C@@H]2c2nc3cccc(F)c3o2)o1` [Example 264, (R)-(4-bromo-2-(2-hydroxypropan-2-yl)oxazol-5-yl)(4-(7-fluorobenzo[d]oxazol-2-yl)-6,7-dihydro-1H-imidazo[4,5-c]pyridin-5(4H)-yl)methanone] was tested, and the AC50 (A375 R408W cells) was 0.5 to 1 µM.
For `O=C(C1CC1)N1CCc2[nH]cnc2[C@@H]1c1nc2cc(F)ccc2o1` (single isomer, unassigned), the AC50 [1] was at least 5 µM.
For `Cn1cc(-c2nc(C(F)F)c(C(=O)N3CCc4[nH]cnc4[C@H]3c3nc4cccc(F)c4o3)o2)cn1` [Example 636, (S)-(4-(difluoromethyl)-2-(1-methyl-1H-pyrazol-4-yl)oxazol-5-yl)(4-(7-fluorobenzo[d]oxazol-2-yl)-6,7-dihydro-1H-imidazo[4,5-c]pyridin-5(4H)-yl)methanone], the AC50 (A375 R408W cells) was at most 0.5 µM.
`CC(C)(O)c1nc(C(F)(F)F)c(C(=O)N2CCc3[nH]cnc3[C@@H]2c2nc3cc(F)ccc3o2)o1` [Example 46, (R)-(4-(5-fluorobenzo[d]oxazol-2-yl)-6,7-dihydro-1H-imidazo[4,5-c]pyridin-5(4H)-yl)(2-(2-hydroxypropan-2-yl)-4-(trifluoromethyl)oxazol-5-yl)methanone] gave an AC50 (A375 R408W cells) of at most 0.5 µM.
